# Measurements as given in PMC2215435 (The Journal of General Physiology, 1981).
# Like-named read-outs stand apart in the source and are kept apart here.
# Test system: potassium channel
# Type: cell-based, squid Loligo pealei
# Details: for rate constant of block b: calculated from Kd = l/b and tau decay (Table IV); for tau decay / blocking rate constant K (fit of current with Eq. 2) / unblocking rate constant L (fit of current with Eq. 2): 30 μM; for blocking rate constant K (fit of current with Eq. 2) / unblocking rate constant L (fit of current with Eq. 2): Fig. 1B
# [1] = +100 mV, several experiments, Fig. 3B, r = 0.98
SMILES,rate constant of unblock l (+60 mV (Table IV)),rate constant of block b (+60 mV),rate constant of unblock l (+80 mV (Table IV)),rate constant of block b (+80 mV),rate constant of unblock l (+100 mV (Table IV)),rate constant of block b (+100 mV),"tau decay (+100 mV, 6 °C)","tau decay (+100 mV, 8 °C)","tau decay (+100 mV, 16 °C)",blocking rate constant K (fit of current with Eq. 2) (+60 mV),unblocking rate constant L (fit of current with Eq. 2) (+60 mV),blocking rate constant K (fit of current with Eq. 2) (+100 mV),unblocking rate constant L (fit of current with Eq. 2) (+100 mV),"time constant of decay of potassium current (tau decay) (10 μM, +100 mV)","time constant of decay of potassium current (tau decay) (33 μM, +100 mV)","time constant of decay of potassium current (tau decay) (100 μM, +100 mV)",b from straight line 1/tau decay = b[QA] + l [1],l from straight line 1/tau decay = b[QA] + l [1]
"CCCCCCC[N+](CC)(CC)CC [C7TE, heptyltriethylammonium]",0.071 ms-1,2.8 ms-1 mM-1,0.072 ms-1,3.4 ms-1 mM-1,0.063 ms-1,3.6 ms-1 mM-1,,,,,,,,,,,,
"CCCCCCCCC[N+](CC)(CC)CC [C9TE, nonyltriethylammonium]",0.030 ms-1,5.5 ms-1 mM-1,0.028 ms-1,6.1 ms-1 mM-1,0.033 ms-1,7.3 ms-1 mM-1,,,,,,,,,,,,
"CCCCCCCCCC[N+](CC)(CC)CC [C10TE, decyltriethylammonium]",0.019 ms-1,5.2 ms-1 mM-1,0.019 ms-1,6.0 ms-1 mM-1,0.023 ms-1,6.7 ms-1 mM-1,5.78 ms,3.83 ms,2.06 ms,,,,,,,,,
"CCCCCCCCCC[N+](CCO)(CCO)CCO [C10TEtoh, decyltriethanolammonium]",0.084 ms-1,0.43 ms-1 mM-1,0.097 ms-1,0.55 ms-1 mM-1,0.110 ms-1,0.65 ms-1 mM-1,,,,,,,,,,,,
"CCCCCCCCCC[N+](CCC)(CCC)CCC [C10TP, decyltripropylammonium]",0.015 ms-1,0.13 ms-1 mM-1,0.016 ms-1,0.15 ms-1 mM-1,0.015 ms-1,0.17 ms-1 mM-1,,,,,,,,,,,,
"CCCCCCCC[N+](CC)(CC)CCO [CsDEEtoh, octyldiethylethanolammonium]",,6.2 ms-1 mM-1,,8.0 ms-1 mM-1,,9.4 ms-1 mM-1,,,,0.162 ms-1,0.118 ms-1,0.234 ms-1,0.112 ms-1,,,,,
"CCCCCCCC[N+](CC)(CC)CCCO [CsDEProh, octyldiethylpropanolammonium]",0.0236 ms-1,2.56 ms-1 mM-1,0.0308 ms-1,3.55 ms-1 mM-1,0.0262 ms-1,4.10 ms-1 mM-1,,,,,,,,11.42 ms,6.88 ms,2.21 ms,4.0 ms-1 mM-1,0.032 ms-1
"CCCCCCCC[N+](CC)(CC)CC [CsTE, octyltriethylammonium]",0.038 ms-1,5.1 ms-1 mM-1,0.038 ms-1,5.5 ms-1 mM-1,0.043 ms-1,5.9 ms-1 mM-1,,,,,,,,,,,,
"CCCCCCCC[N+](CCC)(CCC)CCC [CsTP, octyltripropylammonium]",0.021 ms-1,0.95 ms-1 mM-1,0.031 ms-1,1.22 ms-1 mM-1,0.039 ms-1,1.40 ms-1 mM-1,,,,,,,,,,,,
"CC[N+](CC)(CCO)CCCc1ccccc1 [~PDEEtoh, phenylpropyldiethylethanolammonium]",0.024 ms-1,3.4 ms-1 mM-1,0.037 ms-1,3.9 ms-1 mM-1,0.033 ms-1,4.3 ms-1 mM-1,,,,,,,,,,,,
"CC[N+](CC)(CC)CCCc1ccccc1 [~PTE, phenylpropyltriethylammonium]",0.015 ms-1,2.5 ms-1 mM-1,0.013 ms-1,2.7 ms-1 mM-1,0.025 ms-1,3.5 ms-1 mM-1,,,,,,,,,,,,
